A value given as a limit tells only on which side of the number the result lay.

For one series, the target named is T1, human TLR8 (Homo sapiens, UniProt Q9NR97).
T1 sequence (Q9NR97 27-1041): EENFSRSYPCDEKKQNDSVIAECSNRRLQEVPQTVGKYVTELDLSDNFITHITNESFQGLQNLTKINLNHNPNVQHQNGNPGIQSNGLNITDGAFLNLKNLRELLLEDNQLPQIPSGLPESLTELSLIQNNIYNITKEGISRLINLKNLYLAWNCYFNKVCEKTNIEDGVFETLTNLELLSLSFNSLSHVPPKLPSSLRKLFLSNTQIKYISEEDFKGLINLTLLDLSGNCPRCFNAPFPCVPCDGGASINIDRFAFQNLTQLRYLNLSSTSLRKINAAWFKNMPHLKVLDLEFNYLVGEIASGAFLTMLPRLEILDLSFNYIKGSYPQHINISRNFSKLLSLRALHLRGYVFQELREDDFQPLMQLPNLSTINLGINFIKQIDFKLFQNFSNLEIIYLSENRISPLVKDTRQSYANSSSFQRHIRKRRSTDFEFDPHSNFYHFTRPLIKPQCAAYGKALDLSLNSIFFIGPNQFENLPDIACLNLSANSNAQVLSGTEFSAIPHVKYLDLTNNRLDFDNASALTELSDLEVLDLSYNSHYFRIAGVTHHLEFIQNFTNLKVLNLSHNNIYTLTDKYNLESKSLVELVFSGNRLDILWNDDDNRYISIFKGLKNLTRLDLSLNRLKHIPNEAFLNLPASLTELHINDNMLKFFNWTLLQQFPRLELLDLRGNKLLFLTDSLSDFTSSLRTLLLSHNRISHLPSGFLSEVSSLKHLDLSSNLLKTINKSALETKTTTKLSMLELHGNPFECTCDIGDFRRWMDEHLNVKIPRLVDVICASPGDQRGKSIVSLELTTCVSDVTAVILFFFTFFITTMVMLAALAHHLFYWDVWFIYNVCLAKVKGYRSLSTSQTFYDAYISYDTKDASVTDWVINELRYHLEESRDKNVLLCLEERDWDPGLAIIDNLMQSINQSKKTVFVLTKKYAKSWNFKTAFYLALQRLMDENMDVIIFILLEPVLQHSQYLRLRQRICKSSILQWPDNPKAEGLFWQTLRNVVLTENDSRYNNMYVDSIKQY
The series is described as follows: HEK293-Blue-hTLR-8 cells assay. The class given is cell-based. The note with it: HEK293-Blue-hTLR8 cells, R848 stimulation, 20 hrs, SEAP reporter; read-out: HEK/hTLR8 IC50. In a few lines:
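Antagonism read out in HEK293-Blue-hTLR8 cells carrying an NF-κB/AP-1-driven SEAP reporter, stimulated with R848 (10 μL of 60 uM stock added) alongside serially diluted compound (1% DMSO), 20 h at 37° C. Supernatant SEAP measured with QUANTI-Blue after 2 h at 37° C, absorbance at 620-655 nm.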

Series [1] can be described thus: Human microsomal stability assay. It counts as in vitro ADME. To be noted: human liver microsomes 0.5 mg/mL, 37° C., pH 7.4, NADPH regenerating system, 0-30 minutes. In a few lines:
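Human liver microsomes (0.5 mg/mL) with […] compound in 100 mM potassium phosphate, pH 7.4, 37° C; reaction started with NADPH regenerating system after 10 min preincubation. Parent remaining at 0–30 min quantified by LC-MS/MS; clearance binned low (<7.0), medium (7.0-16.2) or high (16.2-23.2) mL/min/kg.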

For `C[C@@H]1CN(c2ccc(C#N)c3ncccc23)C[C@@H]2c3ccc(N4CCOC5CNCC54)cc3CN12` (stereo partly drawn) [Example 52, 5-[(4R,10bS)-8-(3,4a,5,6,7,7a-hexahydro-2H-pyrrolo[3,4-b][1,4]oxazin-4-yl)-4-methyl-3,4,6,10b-tetrahydro-1H-pyrazino[2,1-a]isoindol-2-yl]quinoline-8-carbonitrile], the IC50 at human TLR8 is < 3.2 nM. The “CL (h)” value in series [1] is 8.1 mL/min/kg.
As to `[2H]c1ccc2c(N3C[C@@H](C)N4Cc5cc(N6CC7CNCC(C6)O7)ccc5[C@H]4C3)ccc(C#N)c2n1` [Example 93, 5-[(4R,10bS)-4-methyl-8-(9-oxa-3,7-diazabicyclo[3.3.1]nonan-3-yl)-3,4,6,10b-tetrahydro-1H-pyrazino[2,1-a]isoindol-2-yl]-2-deuterio-quinoline-8-carbonitrile], the IC50 on human TLR8 stood at 2.1 nM. In series [1], the “CL (h)” value is 8.4 mL/min/kg.
Consider `C[C@@H]1CN(c2ccc(C#N)c3ncccc23)C[C@@H]2c3ccc(N4CC[C@@H](N)C4)cc3CN12` [Example 20, 5-[(4R,10bS)-8-[(3R)-3-aminopyrrolidin-1-yl]-4-methyl-3,4,6,10b-tetrahydro-1H-pyrazino[2,1-a]isoindol-2-yl]quinoline-8-carbonitrile], for which the IC50 on human TLR8 was < 3.2 nM. Besides, in series [1], the “CL (h)” value was found to be 6.5 mL/min/kg.
For the compound `C[C@@H]1CN(c2ccc(C#N)c3ncccc23)C[C@@H]2c3ccc(N4CCN[C@H](CO)C4)cc3CN12` [Example 12, 5-[(4R,10bS)-8-[(3S)-3-(hydroxymethyl)piperazin-1-yl]-4-methyl-3,4,6,10b-tetrahydro-1H-pyrazino[2,1-a]isoindol-2-yl]quinoline-8-carbonitrile], on human TLR8, the IC50 was < 3.2 nM. Moreover, the “CL (h)” value in series [1] is on record as 6.2 mL/min/kg.
In the case of `C[C@@H]1CN(c2ccc(C#N)c3ncccc23)C[C@@H]2c3ccc(N4CC(C)(N)C4)cc3CN12` [Example 39, 5-[(4R,10bS)-8-(3-amino-3-methyl-azetidin-1-yl)-4-methyl-3,4,6,10b-tetrahydro-1H-pyrazino[2,1-a]isoindol-2-yl]quinoline-8-carbonitrile], at human TLR8, the IC50 is < 0.3 nM. Besides, in series [1], the “CL (h)” value is 6.2 mL/min/kg.
As for `C[C@@H]1CN(c2ccc(C#N)c3ncccc23)C[C@@H]2c3ccc(N[C@@H]4CNC[C@@H]4F)cc3CN12` [Example 32, 5-[(4R,10bS)-8-[[(3R,4S)-4-fluoropyrrolidin-3-yl]amino]-4-methyl-3,4,6,10b-tetrahydro-1H-pyrazino[2,1-a]isoindol-2-yl]quinoline-8-carbonitrile], the IC50 at human TLR8 was < 3.2 nM. For the same compound, the “CL (h)” value in series [1] is given as 8.7 mL/min/kg.
In the case of `C[C@@H]1CN(c2ccc(C#N)n3ncc(F)c23)C[C@@H]2c3ccc(N4C[C@H](N)[C@@](C)(O)C4)cc3CN12` [Example 112, 4-[(4R,10bS)-8-[(3S,4S)-4-amino-3-hydroxy-3-methyl-pyrrolidin-1-yl]-4-methyl-3,4,6,10b-tetrahydro-1H-pyrazino[2,1-a]isoindol-2-yl]-3-fluoro-pyrazolo[1,5-a]pyridine-7-carbonitrile], on human TLR8, the IC50 was 3.6 nM. Besides, in series [1], the “CL (h)” value turned out to be 8.6 mL/min/kg.
For the compound `C[C@@H]1CN(c2ccc(C#N)c3ncccc23)C[C@@H]2c3ccc(NCCN(C)C)cc3CN12` [Example 26, 5-[(4R,10bS)-8-[2-(dimethylamino)ethylamino]-4-methyl-3,4,6,10b-tetrahydro-1H-pyrazino[2,1-a]isoindol-2-yl]quinoline-8-carbonitrile], the IC50 on human TLR8 was < 3.2 nM. Further, in series [1], the “CL (h)” value worked out at 6.2 mL/min/kg.
The matching figures for `C[C@@H]1CN(c2ccc(C#N)c3ncccc23)C[C@@H]2c3ccc(N4CCOC[C@@H](N)C4)cc3CN12` [Example 54B, 5-[(4R,10bS)-8-[(6S)-6-amino-1,4-oxazepan-4-yl]-4-methyl-3,4,6,10b-tetrahydro-1H-pyrazino[2,1-a]isoindol-2-yl]quinoline-8-carbonitrile]: < 3.2 nM and 7.0 mL/min/kg.
In the case of `C[C@@H]1CN(c2ccc(C#N)c3ncccc23)C[C@@H]2c3ccc(N4CC5(CCN5)C4)cc3CN12` [Example 37, 5-[(4R,10bS)-8-(1,6-diazaspiro[3.3]heptan-6-yl)-4-methyl-3,4,6,10b-tetrahydro-1H-pyrazino[2,1-a]isoindol-2-yl]quinoline-8-carbonitrile], at human TLR8, the IC50 is < 3.2 nM. The “CL (h)” value in series [1] was 6.5 mL/min/kg.

Values taken from US12157746B2, “Tetrahydro-1H-pyrazino[2,1-a]isoindolylquinoline compounds for the treatment of autoimmune disease” (F. HOFFMANN-LA ROCHE AG, priority 2018, dated 2024).
